From patent publication US20050265944A1, “Carbohydrate-based anti-wrinkle and tissue remodelling compounds” (Ultraceuticals R&D Limited, priority 2002, published 2005)

Assays:
[1] = tested on: skin (dermis) fibroblasts; assay: Intradermal injection into abdominal skin, cellularity, collagen (Gomori's stain) and fibroblasts (prolyl 4-hydroxylase immunohistochemistry); type: in vivo, female Wistar rats; details: Example 7, 50 mg/ml in sterile saline, 50 microliters intradermal; for dermal collagen (Gomori's staining) / fibroblast-like cells / cellular infiltrate in the dermis: 48 hours and 7 days; for fibroblast-like cells / cellular infiltrate in the dermis: H&E
Method: Following ether anaesthesia, hair was clipped from skin on both sides of the abdominal region of 8-10 week old female Wistar rats. Intradermal injections (via a 30 gauge needle) of either sterile saline (50 microliters), PM5 (50 microliters, 50 mg/ml in sterile saline) or amylopectin (50 microliters, 50 mg/ml in sterile saline) were placed in the centre of 1 cm^2 defined areas of abdominal skin. Forty-eight hours and 7 days after injection, groups of animals were euthanased by CO2 overdose and skin samples were examined following the preparation of 6 μm histological sections that were stained with H&E and Gomori's (collagen) stain. In addition, immunohistochemistry using a mouse anti-rat prolyl 4-hydroxylase monoclonal antibody (Chemicon International Inc) in paraffin embedded skin sections was used to identify fibroblasts within the dermis.

cutaneous tissue = assay: Dermal application: cellularity and collagen deposition in cutaneous tissue (general statements); type: in vivo; details: general statement in the description
skin of normal rats = assay: Intradermal injection, cell migration / cellularity at the site of administration (histology); type: in vivo, female Fischer rats; details: 50 microlitre intradermal, 48 hours; for cellularity at the site of injection: versus saline
Method: The effects of intradermally injected glucose, maltose and maltopentaose on cell migration into the site of administration in the skin of normal rats. Healthy, specific pathogen free female Fischer rats 10-12 weeks of age (n=3) were anesthetised with ether and hair on their backs was clipped (electric miniclippers) from two areas of approximately 1.5 cm×4 cm either side of and paralleling the spinal column. The test and control substances were injected into the centre of 1 square cm defined areas. Substances were administered in such a fashion that each was injected into 4 different positions at least once in order to control for any possible anatomical positioning effect. Agents were dissolved in normal saline at a concentration of 100 mg/ml and sterile filtered prior to administration. Fifty microlitre injection volumes were given intradermally using 30 gauge needles and control injections consisted of 50 microlitres of sterile normal saline. Animals were sacrificed 48 hours following injection and injection sites were subjected to histological sectioning followed by microscopic examination.
(§1) The effects of intradermally injected dextran and maltopentaose on cell migration into the site of administration in the skin of normal rats. In a similar experiment to that outlined in Example 1 above, female Fischer rats, 10-12 weeks of age (n=3) were treated with 50 microlitre volumes of i) 50 mg/ml of clinical grade dextran (MW 71,400); ii) 50 mg/ml maltopentaose; or iii) normal saline using a 30 gauge needle. Skin injection sites were submitted for histological sectioning and examined microscopically 48 hours following injection.
as §1, with “injected maltotriose” for “injected dextran”, “age (n=2)” for “age (n=3)”, “i) 100” for “i) 50”, “of maltotriose;” for “of clinical grade dextran (MW 71,400);”, “ii) 100” for “ii) 50”
(§2) The effects of intradermally injected maltopentaose and 1,4-beta-mannohexaose on cell migration into the site of administration in the skin of normal rats. In a similar experiment to that outlined in Example 1 above, female Fischer rats, 10-12 weeks of age (n=2) were treated with 50 microlitre volumes of i) 100 mg/ml of maltopentaose; ii) 100 mg/ml of 1,4-beta-mannohexaose; or iii) normal saline using a 30 gauge needle. Skin injection sites were submitted for histological sectioning and examined microscopically 48 hours following injection.
as §2, with “amylose” for “maltopentaose”, “the O-phosphorylated mannan isolated from Pichia holstii” for “1,4-beta-mannohexaose”, “50” for “100”, “amylose;” for “maltopentaose;”, “the O-phosphorylated mannan from Pichia holstii;” for “1,4-beta-mannohexaose;”, “injection. […]” for “injection.”

[2] = Example 1, 100 mg/ml in normal saline

Compound: O=P(O)(O)OC[C@H]1O[C@H](O[C@@H]2[C@H](O)[C@@H](O[C@@H]3[C@H](O)[C@@H](O[C@@H]4[C@H](O)[C@@H](O[C@H]5[C@@H](O)[C@H](O)[C@@H](CO)O[C@@H]5O)O[C@H](CO)[C@H]4O)O[C@H](CO)[C@H]3O)O[C@H](CO)[C@H]2O)[C@@H](O)[C@@H](O)[C@@H]1O [PM5, 6-O-phospho-alpha-D-mannose-(1,3)-alpha-D-mannose-(1,3)-alpha-D-mannose-(1,3)-alpha-D-mannose-(1,2)-alpha-D-mannose]
- dermal collagen (Gomori's staining) [1]: collagen deposited in the lower dermal layers
- fibroblast-like cells / cellular infiltrate in the dermis [1]: increase in fibroblast-like cells
- increase in cellularity and collagen deposition in cutaneous tissue / tissue remodelling effect (cutaneous tissue): effective tissue remodelling agents and effective anti-wrinkle compounds

Compound: maltopentaose
- cellularity at the site of injection (skin of normal rats; [2]): significant increase in cellularity (P=0.001) versus saline
- cellularity at the site of injection (skin of normal rats; Example 2, 50 mg/ml): clear and significant difference in cellularity versus saline
- cellularity at the site of injection (skin of normal rats; Example 3, 100 mg/ml): clear and significant difference in cellularity versus saline
- cellularity at the site of injection (skin of normal rats; Example 4, 100 mg/ml): increases in cellularity
- increase in cellularity and collagen deposition in cutaneous tissue / tissue remodelling effect (cutaneous tissue): effective tissue remodelling agents and effective anti-wrinkle compounds

Compound: dextran [reference compound]
- cellularity at the site of injection (skin of normal rats; Example 2, 50 mg/ml): increased cellularity was noticed in the dextran injection sites but this was not statistically significantly different from the saline injected sites

Compound: OC[C@H]1O[C@H](O[C@H]2[C@H](O)[C@@H](O)C(O)O[C@@H]2CO)[C@H](O)[C@@H](O)[C@@H]1O (mixture of isomers) [maltose, reference compound]
- cellularity at the site of injection (skin of normal rats; [2]): neither saline, glucose nor maltose had any effect on cellularity

Compound: amylose
- cellularity at the site of injection (skin of normal rats; Example 5, 50 mg/ml): increases in cellularity

Compound: OC[C@H]1O[C@@H](O[C@H]2[C@H](O)[C@H](O)[C@H](O[C@H]3[C@H](O)[C@H](O)[C@H](O[C@H]4[C@H](O)[C@H](O)[C@H](O[C@H]5[C@H](O)[C@H](O)[C@H](O[C@H]6[C@H](O)[C@H](O)C(O)O[C@@H]6CO)O[C@@H]5CO)O[C@@H]4CO)O[C@@H]3CO)O[C@@H]2CO)[C@@H](O)[C@@H](O)[C@@H]1O (stereo partly drawn) [1,4-beta-mannohexaose]
- cellularity, 1,4-beta-mannohexaose injection sites versus maltopentaose sites (skin of normal rats; Example 4, 100 mg/ml): the results were not significantly different
- cellularity at the site of injection (skin of normal rats; Example 4, 100 mg/ml): increases in cellularity
- increase in cellularity and collagen deposition in cutaneous tissue / tissue remodelling effect (cutaneous tissue): effective tissue remodelling agents and effective anti-wrinkle compounds

Compound: maltohexaose
- increase in cellularity and collagen deposition in cutaneous tissue / tissue remodelling effect (cutaneous tissue): effective tissue remodelling agents and effective anti-wrinkle compounds

Compound: amylopectin
- fibroblast numbers (immunohistochemical staining, anti-rat prolyl 4-hydroxylase) [1]: influx of fibroblastoid cells
- dermal collagen (Gomori's staining) [1]: increase in dermal collagen
- fibroblast-like cells / cellular infiltrate in the dermis [1]: marked “fibroblast-like” cellular infiltrate in both the upper and lower regions of the dermis
- fibroblast numbers (immunohistochemical staining, anti-rat prolyl 4-hydroxylase) ([1]; listed as Amylopectin): increase in dermal collagen (as indicated Gomori's staining) (FIG. 3), and fibroblast numbers
- increase in cellularity and collagen deposition in cutaneous tissue / tissue remodelling effect (cutaneous tissue): particularly effective in this regard

Compound: maltoheptaose
- increase in cellularity and collagen deposition in cutaneous tissue / tissue remodelling effect (cutaneous tissue): effective tissue remodelling agents and effective anti-wrinkle compounds

Compound: maltotriose [reference compound]
- cellularity at the site of injection (skin of normal rats; Example 3, 100 mg/ml): no increase in cellularity

Compound: OC[C@H]1O[C@@H](O[C@H]2[C@H](O)[C@H](O)[C@H](O[C@H]3[C@H](O)[C@H](O)[C@H](O[C@H]4[C@H](O)[C@H](O)[C@H](O[C@H]5[C@H](O)[C@H](O)C(O)O[C@@H]5CO)O[C@@H]4CO)O[C@@H]3CO)O[C@@H]2CO)[C@@H](O)[C@@H](O)[C@@H]1O (stereo partly drawn) [1,4-beta-D-mannopentaose]
- increase in cellularity and collagen deposition in cutaneous tissue / tissue remodelling effect (cutaneous tissue): effective tissue remodelling agents and effective anti-wrinkle compounds
